Reference: ChEMBL document CHEMBL1153383, “Novel 2- and 4-substituted 1H-imidazo[4,5-c]quinolin-4-amine derivatives as allosteric modulators of the A3 adenosine receptor” (J Med Chem, 2009)

What was measured:
[1] = molecular target: T1, Adenosine receptor A1 (Homo sapiens) (UniProt P30542); assay: Displacement of [3H]CCPA from human recombinant adenosine A1 receptor expressed in CHO cells at 10 uM; type: cell-based
T1 sequence (whole entry): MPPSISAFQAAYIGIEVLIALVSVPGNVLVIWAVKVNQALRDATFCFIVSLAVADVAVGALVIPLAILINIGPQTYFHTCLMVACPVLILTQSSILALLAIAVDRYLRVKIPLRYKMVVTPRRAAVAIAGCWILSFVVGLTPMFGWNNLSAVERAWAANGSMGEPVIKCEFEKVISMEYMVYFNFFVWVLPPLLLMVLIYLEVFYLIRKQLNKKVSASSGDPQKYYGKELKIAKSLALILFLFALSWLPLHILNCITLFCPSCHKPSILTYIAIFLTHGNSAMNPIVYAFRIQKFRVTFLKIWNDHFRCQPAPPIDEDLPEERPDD

[2] = molecular target: Adenosine receptor A2a (Homo sapiens) (UniProt P29274); assay: Displacement of [3H]CGS21680 from human recombinant adenosine A2A receptor expressed in HEK293 cells at 10 uM; type: cell-based
Chain of Adenosine receptor A2a (Homo sapiens) (P29274 whole entry): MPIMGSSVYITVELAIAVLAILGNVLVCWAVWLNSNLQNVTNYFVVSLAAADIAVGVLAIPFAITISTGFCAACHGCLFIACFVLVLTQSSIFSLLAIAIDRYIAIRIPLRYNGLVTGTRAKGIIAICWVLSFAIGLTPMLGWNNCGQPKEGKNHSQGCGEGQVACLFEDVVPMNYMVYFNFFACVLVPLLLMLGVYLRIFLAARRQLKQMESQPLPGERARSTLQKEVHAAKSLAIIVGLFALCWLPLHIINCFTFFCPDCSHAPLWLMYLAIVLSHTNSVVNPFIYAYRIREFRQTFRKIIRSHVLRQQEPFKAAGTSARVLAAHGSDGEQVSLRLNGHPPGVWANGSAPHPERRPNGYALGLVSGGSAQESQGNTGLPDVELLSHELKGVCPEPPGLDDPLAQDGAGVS

[3] = molecular target: T2, Adenosine receptor A3 (Homo sapiens) (UniProt P0DMS8); assay: Displacement of [125I]I-AB-MECA from human recombinant adenosine A3 receptor expressed in CHO cells at 10 uM; type: cell-based
T2 sequence (whole entry): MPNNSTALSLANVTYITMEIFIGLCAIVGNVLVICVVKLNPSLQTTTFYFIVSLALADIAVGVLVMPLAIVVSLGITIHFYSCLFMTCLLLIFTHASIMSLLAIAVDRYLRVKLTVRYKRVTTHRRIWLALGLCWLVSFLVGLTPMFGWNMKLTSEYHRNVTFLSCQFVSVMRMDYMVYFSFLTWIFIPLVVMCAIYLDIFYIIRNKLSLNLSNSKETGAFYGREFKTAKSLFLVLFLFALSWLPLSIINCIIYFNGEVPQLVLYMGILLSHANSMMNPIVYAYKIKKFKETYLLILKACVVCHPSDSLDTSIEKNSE

[4] = molecular target: T2, Adenosine receptor A3 (Homo sapiens); assay: Decrease in dissociation of [125I]I-AB-MECA from human recombinant adenosine A3 receptor expressed in CHO cells at 10 uM after 60 mins relative to control; type: cell-based; parameters: scale not given: the % may be the effect or the level left
[5] = molecular target: T2, Adenosine receptor A3 (Homo sapiens); assay: Increase in efficacy of stimulation of [35S]GTPgammaS binding to human adenosine A3 receptor expressed in CHO cells at 10 uM by liquid scintillation counting relative to C1-IB-MECA; type: functional, cell-based

Compound	Activity [1] [%]	Activity [2] [%]	Activity [3] [%]	Activity [4] [%]	Activity [5] [%]
Clc1ccc(Nc2nc3ccccc3c3[nH]c(C4CCCCC4)nc23)c(Cl)c1	48	67.2	43.9	174	187
c1cncc(Nc2nc3ccccc3c3[nH]c(C4CCCCC4)nc23)c1	73.1	78.1	64.8	114	119
FC(F)(F)c1cc(Nc2nc3ccccc3c3nc(C4CCCCC4)[nH]c23)cc(C(F)(F)F)c1	7.2	15.6	21.8	137	143
Clc1ccc(Nc2nc3ccccc3c3[nH]c(C4CCN(Cc5ccccc5)CC4)nc23)cc1Cl	17.8	-3.1	46.3	93	–
c1ccc2c(c1)nc(Nc1ccc3c(c1)OCO3)c1nc(C3CCCCC3)[nH]c12	65.4	49	83.9	185	166
Clc1cc(Cl)cc(Nc2nc3ccccc3c3[nH]c(C4CCCCC4)nc23)c1	16.7	-11.4	32.7	184	209
N#Cc1ccc(Nc2nc3ccccc3c3nc(C4CCCCC4)[nH]c23)cc1C#N	33.1	37.2	42.2	129	138
Clc1ccc(Nc2nc3ccccc3c3[nH]c([C@H]4C[C@H]5CC[C@H]4C5)nc23)cc1Cl	44.8	39.4	50.5	168	–
Clc1ccc(Nc2nc3ccccc3c3[nH]c(C4CCCC4)nc23)cc1Cl	–	0	–	–	–
Clc1ccc(Nc2nc3ccccc3c3[nH]c([C@H]4C[C@H]5CC[C@@H]4C5)nc23)cc1Cl	77.9	5.8	61.2	187	–
Clc1ccc(Nc2nc3ccccc3c3[nH]c(C4CCC4)nc23)cc1Cl	-5.2	–	–	–	–
Clc1ccc(Nc2nc3ccccc3c3[nH]c(C45CC6CC(CC(C6)C4)C5)nc23)cc1Cl	13.8	-4.4	17.2	196	–
Clc1cccc(Nc2nc3ccccc3c3[nH]c(C4CCCCC4)nc23)c1	53.3	42.8	79.2	194	200
Clc1ccc(Nc2nc3ccccc3c3[nH]c(C4CCCCCC4)nc23)cc1Cl	-4.2	-2.2	–	–	–
O=C(c1ccccc1)N1CCC(c2nc3c(Nc4ccc(Cl)c(Cl)c4)nc4ccccc4c3[nH]2)CC1	20.2	8.8	29.8	91	–
Clc1ccc(Nc2nc3ccccc3c3nc(C4CCCCC4)[nH]c23)cc1Cl	37	-11.2	–	–	–
Clc1ccc(Nc2nc3ccccc3c3[nH]c(C4CCNCC4)nc23)cc1Cl	10.9	7	52.8	101	–
O=C1c2ccccc2C(=O)N1[C@H]1CC[C@@H](c2nc3c(Nc4ccc(Cl)c(Cl)c4)nc4ccccc4c3[nH]2)CC1	21.4	56.8	5.6	102	–
N[C@H]1CC[C@@H](c2nc3c(Nc4ccc(Cl)c(Cl)c4)nc4ccccc4c3[nH]2)CC1	31.7	15.8	4.2	107	–
Fc1ccc(Nc2nc3ccccc3c3[nH]c(C4CCCCC4)nc23)cc1F	14.6	26.5	68.8	187	197
Fc1cc(F)cc(Nc2nc3ccccc3c3[nH]c(C4CCCCC4)nc23)c1	36.6	17.2	70.1	188	171
Clc1ccc(Nc2nc3ccccc3c3[nH]c(C45CC6CC(CC4C6)C5)nc23)cc1Cl	14.5	-17.3	3.3	139	–
O=C(c1ccccc1)N1CCC(c2nc3c(Nc4ccccc4)nc4ccccc4c3[nH]2)CC1	12.4	43.4	35.3	92	–
Clc1ccc(Nc2nc3ccccc3c3[nH]c(C4CCOCC4)nc23)cc1Cl	37.2	-11.9	69.6	115	–
COc1ccc(Nc2nc3ccccc3c3[nH]c(C4CCCCC4)nc23)cc1OC	75.6	93.8	98.4	173	182
